Where “and” joins values, the source holds several entries; their conditions need not be identical. Equal entries are not always repeated. Where two headings read alike, the source gives them in different places.
Key:
[1] = system: P. falciparum NF54-HGL, dT648M, cT648M, cT627A asexual blood stages; experiment: Asexual drug-sensitivity of AcAS mutant parasites; format: cell-based, Plasmodium falciparum; parameters: key to asexual blood stages growth, dose-response: % growth; DMSO control = 100%, DHA/epoxomicin = no growth
Procedure: Replication assays were performed using a SYBR Green method as described previously. Briefly, asynchronous parasites were diluted to 0.83% parasitemia, 3% hematocrit in 30 µl medium, and added to 30 µl of diluted compounds in medium (0.1% DMSO final concentration) in black 384-wells plates. After a 72-h incubation, 30 µl of SYBR Green diluted in lysis buffer was added according to the manufacturer’s protocol (Life Technologies). Fluorescence intensity was measured on a BioTek Synergy 2 Plate Reader after 1-h incubation and was normalized to a DMSO control (100% growth) and DHA- or epoxomicin-treatment (no growth). […] Parasite survival was assessed by flow cytometry on an Accuri C6 (BD Biosciences) with BD C6 Plus software using SYBR Green and MitoTracker Deep Red FM (Life Technologies) as nuclear stain and vital dye, respectively, and data were analyzed using FlowJo (10.5.0). […] Luminescence was measured after 72 h using the Renilla-Glo(R) Luciferase Assay System (Promega E2750) and the GlomAX® Discover Multimode Microplate Reader (Promega). The luminescence values were normalized to DMSO vehicle (100% growth) and 200 nM chloroquine-treated (no growth) samples as controls.
The mutation found in selected drug-resistant parasites was verified by introducing the point mutations in AcAS (T648M and T627A) in NF54-HGL parasites using a CRISPR-Cas9 system as described previously. The oligonucleotides for the guide RNA and the donor template were cloned into a pDC2-based plasmid containing a Cas9 and guide cassette, using the BbsI and EcoRI/AatII restriction sites, respectively. Donor DNA was amplified by (overlap-extension) PCR amplification from genomic P. falciparum DNA and oligonucleotides for the guide RNAs were ordered (Sigma-Aldrich). The correct sequence and integration of both inserts were confirmed by Sanger Sequencing.

Crystal screening (XRPD) = format: physicochemical; settings: 36 conditions
Procedure: Crystal screening for each further characterized pantothenamide was performed by a commercial service (Crystal Pharmatech Co., Ltd.) under 36 conditions using a variety of crystallization methods, including liquid vapor diffusion, slow evaporation, slurry conversion and salt/co-crystal formation and solvents. X-ray power diffraction (XRPD) patterns were collected by Bruker X-ray powder diffractometers.

[2] = system: P. falciparum NF54-HGL gametocytes; experiment: Gametocyte viability assay (72 h, luminescence); format: cell-based, Plasmodium falciparum; settings: NF54-HGL
Procedure: (§1) Gametocyte viability assays on NF54-HGL parasites were performed using an adapted high-throughput protocol as previously described[15],[64]. In short, asexual blood-stage parasite cultures were set up at 1% parasitemia in a semi-automated shaker system at 5% hematocrit. From day four until day eight or nine, parasites were treated with 50 mM N-acetyl glucosamine to eliminate all asexual blood-stage parasites. Subsequently, gametocytes were isolated by a Percoll density gradient centrifugation. At day 11, gametocytes were seeded (5,000 per well) in 30 µl in white 384-well plates containing 30 µl of compounds diluted in medium (0.1% DMSO). After a 72-h incubation, 30 µl of ONE-Glo reagent (Promega) was added according to manufacturer’s protocol and luminescence was quantified using the BioTek Synergy 2 Plate reader. Values were normalized to DMSO- and epoxomicin or dihydroartemisinin-treated controls.

[3] = system: cryopreserved human primary hepatocytes; experiment: in vitro; settings: human, hepatocytes
Text: Briefly, cryopreserved human primary hepatocytes were thawed and cultured as described above.

[4] = system: P. falciparum T648M / T627A AcAS mutant gametocytes; format: cell-based, Plasmodium falciparum
Procedure: as §1

[5] = system: P. falciparum Pf3D7^0087/N9; experiment: Single dose in vivo efficacy in humanized NSG mice; parameters: species or system Plasmodium falciparum
Procedure: The effect of pantothenamides on P. falciparum Pf3D7^0087/N9 [66] in vivo was assessed in female NSG mice (NODscidIL2Rγ^null) at the Swiss Tropical and Public Health Institute (Basel, Switzerland) as described previously (Supplementary Table 30)[15],[67]. Briefly, humanized mice were engrafted daily with human erythrocyte suspensions from days -11 to day 6. […] On day 4, groups of n = 2 mice were treated with a single dose pantothenamides or chloroquine (50 mg/kg) by oral gavage. […] Serial dilutions were prepared in the same solvent to concentrations 50 times higher than the corresponding CAL and QC concentrations. The concentrations were calculated under consideration of purity and salt factor. The spiking of the CAL and QC sample were performed at room temperature.

[6] = cT627A, Log concentration (M) -7.5
[7] = cT627A, Log concentration (M) -8
[8] = cT627A, Log concentration (M) -8.5
[9] = cT627A, Log concentration (M) -9
[10] = cT627A, Log concentration (M) -9.5
[11] = cT627A, Log concentration (M) -10
[12] = cT648M, Log concentration (M) -6
[13] = cT648M, Log concentration (M) -6.5
[14] = cT648M, Log concentration (M) -7
[15] = cT648M, Log concentration (M) -7.5
[16] = cT648M, Log concentration (M) -8
[17] = cT648M, Log concentration (M) -8.5
[18] = cT648M, Log concentration (M) -9
[19] = cT648M, Log concentration (M) -9.5
[20] = cT648M, Log concentration (M) -10
[21] = dT648M, Log concentration (M) -6
[22] = dT648M, Log concentration (M) -6.5
[23] = dT648M, Log concentration (M) -7
[24] = dT648M, Log concentration (M) -7.5
[25] = dT648M, Log concentration (M) -8
[26] = dT648M, Log concentration (M) -8.5
[27] = dT648M, Log concentration (M) -9
[28] = dT648M, Log concentration (M) -9.5
[29] = dT648M, Log concentration (M) -10

CC(CNC(=O)C(O)C(C)(C)CO)NC(=O)CCc1ccccc1F (stereo in doubt) [MMV689258]
asexual blood stages growth, dose-response ([1]; NF54-HGL, Log concentration (M) -9): 76.1 and 93.6 and 100.55
asexual blood stages growth, dose-response ([1]; NF54-HGL, Log concentration (M) -9.5): 86.25 and 83.5 and 106.05
asexual blood stages growth, dose-response ([1]; NF54-HGL, Log concentration (M) -10): 96.25 and 97.9 and 112.35
asexual blood stages growth, dose-response [1, 6]: 91.7 and 68.35 and 87.5
asexual blood stages growth, dose-response [1, 7]: 98.75 and 75.4 and 102
asexual blood stages growth, dose-response [1, 8]: 98.95 and 109.7 and 103.8
asexual blood stages growth, dose-response [1, 9]: 93.85 and 110.4 and 101.9
asexual blood stages growth, dose-response [1, 10]: 95.15 and 100.65 and 102.3
asexual blood stages growth, dose-response [1, 11]: 92.1 and 102.75
asexual blood stages growth, dose-response [1, 12]: 85.3 and 76.95 and 95.6
asexual blood stages growth, dose-response [1, 13]: 97.25 and 93 and 109.55
asexual blood stages growth, dose-response [1, 14]: 112 and 98.45 and 99.1
asexual blood stages growth, dose-response [1, 15]: 108.7 and 101 and 101.4
asexual blood stages growth, dose-response [1, 16]: 108.05 and 99.35 and 97.85
asexual blood stages growth, dose-response [1, 17]: 99.1 and 110.25 and 104.05
asexual blood stages growth, dose-response [1, 18]: 88.2 and 96.6 and 106.85
asexual blood stages growth, dose-response [1, 19]: 95.65 and 97.35 and 100.3
asexual blood stages growth, dose-response [1, 20]: 86.35 and 97.9 and 99.6
asexual blood stages growth, dose-response [1, 21]: 86.55
asexual blood stages growth, dose-response [1, 22]: 89.25
asexual blood stages growth, dose-response [1, 23]: 95.15
asexual blood stages growth, dose-response [1, 24]: 99.65
asexual blood stages growth, dose-response [1, 25]: 89.85
asexual blood stages growth, dose-response [1, 26]: 92.65
asexual blood stages growth, dose-response [1, 27]: 97.45
asexual blood stages growth, dose-response [1, 28]: 97
asexual blood stages growth, dose-response [1, 29]: 99.15
Crystalline (Crystal screening (XRPD)): Yes
gametocyte viability, dose-response ([2]; Log concentration (M) -8): 82.05 and 46 and 45.3
gametocyte viability, dose-response ([2]; Log concentration (M) -8.5): 95.95 and 82.9 and 64.1
gametocyte viability, dose-response ([2]; Log concentration (M) -9): 97.75 and 94.05 and 92.15
gametocyte viability, dose-response ([2]; Log concentration (M) -9.5): 104.7 and 93.15 and 94.35
gametocyte viability, dose-response ([2]; Log concentration (M) -10): 106.25 and 112.55 and 90.95
Human hepatocyte CLint [3]: 0.8 µl/min/10^6 cells
gametocyte viability, dose-response ([4]; cT627A, Log concentration (M) -6): 54.65 and 65.95 and 38.25
gametocyte viability, dose-response ([4]; cT627A, Log concentration (M) -6.5): 66.35 and 84.15 and 69.3
gametocyte viability, dose-response ([4]; cT627A, Log concentration (M) -7): 85 and 95.75 and 66.7
gametocyte viability, dose-response [4, 6]: 95.85 and 91.8 and 94.3
gametocyte viability, dose-response [4, 7]: 92.9 and 96.45 and 100.2
gametocyte viability, dose-response [4, 8]: 84.65 and 95.2 and 101.25
gametocyte viability, dose-response [4, 9]: 97.55 and 97.85 and 111.3
gametocyte viability, dose-response [4, 10]: 87.2 and 101.95 and 102.75
gametocyte viability, dose-response [4, 11]: 85.8 and 97.9 and 99.85
gametocyte viability, dose-response [4, 12]: 103.9 and 89.5 and 90.75
gametocyte viability, dose-response [4, 13]: 103.05 and 97.85 and 100.35
gametocyte viability, dose-response [4, 14]: 99.3 and 92.85 and 107.7
gametocyte viability, dose-response [4, 15]: 98.25 and 95.25 and 103.7
gametocyte viability, dose-response [4, 16]: 84.9 and 96.6 and 106.6
gametocyte viability, dose-response [4, 17]: 104.05 and 98.15 and 101
gametocyte viability, dose-response [4, 18]: 97.2 and 88.65 and 97.7
gametocyte viability, dose-response [4, 19]: 106.45 and 88.2 and 104.1
gametocyte viability, dose-response [4, 20]: 102.75 and 101.9 and 108.55
gametocyte viability, dose-response [4, 21]: 104.25
gametocyte viability, dose-response [4, 22]: 95.5
gametocyte viability, dose-response [4, 23]: 100.05
gametocyte viability, dose-response [4, 24]: 101.95
gametocyte viability, dose-response [4, 25]: 95.3
gametocyte viability, dose-response [4, 26]: 102.85
gametocyte viability, dose-response [4, 27]: 93.8
gametocyte viability, dose-response [4, 28]: 107.4
gametocyte viability, dose-response [4, 29]: 95.7
Parasitemia ([5]; day 5 post infection, 50 mg/kg p.o. on day 4, per mouse, 50 mg/kg): 0.26 and 0.2
Parasitemia ([5]; day 6 post infection, per mouse): 0.15 and 0.1
Parasitemia ([5]; day 7 post infection, per mouse): 0.22 and 0.12
parasitemia outcome ([5]; single 50 mg/kg oral gavage on day 4, over three days): not fully cleared

— paper PMC9021288 (Nature Communications, 2022)
